In US20100137313A1 (ASTRAZENECA AB, priority 2008, published 2010):

target: S. pneumoniae Topoisomerase IV ATPase (ParE) (Streptococcus pneumoniae serotype 4, UniProt Q59961); test: S. pneumoniae Topoisomerase IV ATPase inhibition; format: biochemical; conditions: values marked * are an average of two or more data points, read-out: % Inh (13 μM) of S. pneumoniae Topoisomerase IV ATPase
Summary of the method: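 Malachite green/ammonium molybdate phosphate detection, A650. 1.25 nM ParE, 160 μM ATP, sheared salmon sperm DNA 5 μg/ml, 20 mM Tris pH 8.0, 8.0 mM MgCl2. Controls: 2% DMSO = 0%, 20 μM EDTA = 100% inhibition; IC50 over 10 concentrations.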

Chain of S. pneumoniae Topoisomerase IV ATPase (ParE) (Q59961 whole entry): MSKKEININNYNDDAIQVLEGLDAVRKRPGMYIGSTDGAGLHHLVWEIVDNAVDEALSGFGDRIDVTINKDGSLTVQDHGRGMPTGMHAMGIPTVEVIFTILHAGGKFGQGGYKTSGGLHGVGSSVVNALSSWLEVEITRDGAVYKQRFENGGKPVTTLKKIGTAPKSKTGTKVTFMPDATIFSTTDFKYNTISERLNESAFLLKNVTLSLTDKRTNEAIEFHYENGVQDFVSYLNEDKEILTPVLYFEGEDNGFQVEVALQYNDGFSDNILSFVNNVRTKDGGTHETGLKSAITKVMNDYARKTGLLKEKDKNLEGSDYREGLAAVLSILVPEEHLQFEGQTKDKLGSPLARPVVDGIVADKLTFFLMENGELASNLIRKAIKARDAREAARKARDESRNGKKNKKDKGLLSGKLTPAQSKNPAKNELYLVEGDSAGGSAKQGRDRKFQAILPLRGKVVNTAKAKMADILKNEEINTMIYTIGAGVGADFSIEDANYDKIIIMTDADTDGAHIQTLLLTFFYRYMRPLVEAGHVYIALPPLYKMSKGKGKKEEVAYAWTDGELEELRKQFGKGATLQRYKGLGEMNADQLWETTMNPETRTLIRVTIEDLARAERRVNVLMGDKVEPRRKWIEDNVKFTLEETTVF

Row | Compound | inhibition at 13 µM [%]
1 | CCOC(=O)c1cncc(-c2cnc(Nc3ccc(F)c(Cl)c3)nc2N2CCCCC2)c1 [Example 152, ethyl 5-(2-(3-chloro-4-fluorophenylamino)-4-(piperidin-1-yl)pyrimidin-5-yl)nicotinate] | 0.54
2 | COc1cc(Nc2ncc(-c3cncc(C(=O)NCCO)c3)c(-n3nc(C(F)(F)F)cc3C)n2)cc(OC)c1 [Example 683, 5-{2-[(3,5-dimethoxyphenyl)amino]-4-[5-methyl-3-(trifluoromethyl)-1H-pyrazol-1-yl]pyrimidin-5-yl}-N-(2-hydroxyethyl)pyridine-3-carboxamide] | 100
3 | CC(=O)NC1CCN(c2nc(Nc3ccc(F)c(Cl)c3)ncc2-c2cncc(C(=O)O)c2)CC1 [Example 256, 5-[4-(4-acetamidopiperidin-1-yl)-2-[(3-chloro-4-fluorophenyl)amino]-pyrimidin-5-yl]pyridine-3-carboxylic acid] | 78.8
4 | COCCCNc1nc(Nc2ccc(F)c(Cl)c2)ncc1-c1ccc2ncc(C(=O)O)cc2c1 [Example 305, 6-(2-(3-chloro-4-fluorophenylamino)-4-(3-methoxypropylamino)-pyrimidin-5-yl)quinoline-3-carboxylic acid] | 89.2
5 | CCOC(=O)/C=C/c1cccc(-c2cnc(Nc3ccc(F)c(Cl)c3)nc2-n2cccn2)c1 [Example 1112, ethyl (E)-3-[3-[2-[(3-chloro-4-fluorophenyl)amino]-4-pyrazol-1-ylpyrimidin-5-yl]phenyl]prop-2-enoate] | 71
6 | CCOC(=O)c1cncc(-c2cnc(Nc3ccc(F)c(Cl)c3)nc2NC(COC)COC)c1 [Example 149, ethyl 5-(2-(3-chloro-4-fluorphenylamino)-4-(1,3-dimethoxypropan-2-ylamino)pyrimidin-5-yl)nicotinate] | 82.2
7 | CCOC(=O)CNc1nc(Nc2ccc(F)c(Cl)c2)ncc1-c1cncc(C(=O)OCC)c1 [Example 111, ethyl 5-[2-[(3-chloro-4-fluorophenyl)amino]-4-[(2-ethoxy-2-oxoethyl)amino]pyrimidin-5-yl]pyridine-3-carboxylate] | -13.9
8 | CCC1COC(C)CN1c1nc(Nc2ccc(F)c(Cl)c2)ncc1-c1cccc(/C=C/C(=O)O)c1 (centres unmarked) [Example 1056, (E)-3-(3-(2-(3-chloro-4-fluorophenylamino)-4-(5-ethyl-2-methylmorpholino)pyrimidin-5-yl)phenyl)acrylic acid] | 85
9 | CCNS(=O)(=O)c1cccc(-c2cnc(Nc3ccc(F)c(Cl)c3)nc2-n2ccc(C(F)(F)F)n2)c1 [Example 995, 3-(2-(3-Chloro-4-fluorophenylamino)-4-(3-(trifluoromethyl)-1H-pyrazol-1-yl)pyrimidin-5-yl)-N-ethylbenzenesulfonamide] | 89
10 | COc1ncc(-c2cnc(Nc3cc(Cl)cc(C#N)c3)nc2-n2nc(C(F)(F)F)cc2C)cc1C(=O)O [Example 1122, 5-(2-(3-chloro-5-cyanophenylamino)-4-(5-methyl-3-(trifluoromethyl)-1H-pyrazol-1-yl)pyrimidin-5-yl)-2-methoxynicotinic acid] | 100
11 | COc1ccccc1-c1cnc(Nc2ccc(F)c(Cl)c2)nc1NCCCN(C)C [Example 28, N^2-(3-chloro-4-fluorophenyl)-N^4-[3-(dimethylamino)propyl]-5-(2-methoxyphenyl)-pyrimidin-2,4-diamine] | 62.6
12 | CN(C)CCCNc1nc(Nc2ccc(F)c(Cl)c2)ncc1-c1ccc(C(=O)N2CCCC(F)(F)C2)s1 [Example 370, (5-(2-(3-chloro-4-fluorophenylamino)-4-(3-(dimethylamino)propylamino)pyrimidin-5-yl)thiophen-2-yl) (3,3-difluoro-piperidin-1-yl) methanone] | 129
13 | COc1ncc(-c2cnc(Nc3cc(C)ccc3F)nc2-n2nc(C(F)(F)F)cc2C)cc1C(=O)O [Example 757, 5-{2-[(2-fluoro-5-methylphenyl)amino]-4-[5-methyl-3-(trifluoromethyl)-1H-pyrazol-01-yl]pyrimidin-5-yl}-2-methoxypyridine-3-carboxylic acid] | 19
14 | COCCCNc1nc(Nc2ccc(F)c(Cl)c2)ncc1-c1nc(-c2ccccc2)c(C(=O)O)s1 [Example 510, 2-{2-[(3-chloro-4-fluorophenyl)amino]-4-[(3-methoxypropyl)amino]pyrimidin-5-yl}-4-phenyl-1,3-thiazole-5-carboxylic acid] | 97
15 | COc1cc(F)cc(Nc2ncc(-c3cncc(C(=O)O)c3)c(-n3nc(C(F)(F)F)cc3C)n2)c1 [Example 916, 5-(2-(3-fluoro-5-methoxyphenylamino)-4-(5-methyl-3-(trifluoromethyl)-1H-pyrazol-1-yl)pyrimidin-5-yl)nicotinic acid] | 99
16 | COc1cc(C#N)cc(Nc2ncc(-c3cnc(OC)c(C(=O)O)c3)c(-n3ccc(C(F)(F)F)n3)n2)c1 [Example 736, 5-{2-[(3-cyano-5-methoxyphenyl)amino]-4-[3-(trifluoromethyl)-1H-pyrazol-1-yl]pyrimidin-5-yl}-2-methoxypyridine-3-carboxylic acid] | 100
17 | Cc1cccc(Nc2ncc(-c3cccc(/C=C/C(=O)O)c3)c(-n3ccc(C(F)(F)F)n3)n2)c1 [Example 694, (2E)-3-(3-{2-[(3-methylphenyl)amino]-4-[3-(trifluoromethyl)-1H-pyrazol-1-yl]pyrimidin-5-yl}phenyl)prop-2-enoic acid] | 100
18 | CN(C)CCCNc1nc(Nc2ccc(F)c(Cl)c2)ncc1-c1cncc(-c2nnn[nH]2)c1 [Example 938, 5-(5-(1H-tetrazol-5-yl)pyridin-3-yl)-N2-(3-chloro-4-fluorophenyl)-N4-(3-(dimethylamino)propyl)pyrimidin-2,4-diamine] | 91
19 | Cc1[nH]ncc1CCCNc1nc(Nc2ccc(F)c(Cl)c2)ncc1-c1cncc(C(=O)O)c1 [Example 274, 5-(2-(3-chloro-4-fluorophenylamino)-4-(3-(5-methyl-1H-pyrazol-4-yl)propylamino)pyrimidin-5-yl)nicotinic acid] | 88
20 | COCCN1CCN(c2nc(Nc3ccc(F)c(Cl)c3)ncc2-c2cncc(C(=O)O)c2)CC1 [Example 284, 5-(2-(3-chloro-4-fluorophenylamino)-4-(4-(2-methoxyethyl)piperazin-1-yl)pyrimidin-5-yl)nicotinic acid] | 69.4
21 | O=C(O)c1cc(-c2cnc(Nc3ccc(F)c(Cl)c3)nc2N2CCOCC2)cc([N+](=O)[O-])c1 [Example 490, 3-{2-[(3-chloro-4-fluorophenyl)amino]-4-(morpholin-4-yl)pyrimidin-5-yl}-5-nitrobenzoic acid] | 100
22 | Fc1ccc(Nc2ncc(-c3cncnc3)c(NCCOc3ccccc3)n2)cc1Cl [Example 55, N^2-(3-chloro-4-fluorophenyl)-N^4-(2-phenoxyethyl)-5-pyrimidin-5-ylpyrimidine-2,4-diamine] | 44.4
23 | COc1cc(CNc2nc(Nc3ccc(F)c(Cl)c3)ncc2-c2cnc(OC)nc2)cc(OC)c1 [Example 464, N2-(3-chloro-4-fluorophenyl)-N4-(3,5-dimethoxybenzyl)-2′-methoxy-5,5′-bipyrimidin-2,4-diamine] | 36
